Results on 19 compounds are retold here after patent publication US20250018046A1, “COMPOUNDS FOR TARGETING DEGRADATION OF IRAK4 PROTEINS” (BIOGEN MA INC, priority 2021, published 2025).

The target of this test is T1, IRAK4 (Homo sapiens, UniProt Q9NWZ3).
T1 construct: knocking-in a HiBiT fusion tag into the C-terminal of the IRAK4 gene in 293T cells; host or cells: 293T cells, knock-in of HiBiT at the endogenous IRAK4 locus
T1 sequence (Q9NWZ3 1-460): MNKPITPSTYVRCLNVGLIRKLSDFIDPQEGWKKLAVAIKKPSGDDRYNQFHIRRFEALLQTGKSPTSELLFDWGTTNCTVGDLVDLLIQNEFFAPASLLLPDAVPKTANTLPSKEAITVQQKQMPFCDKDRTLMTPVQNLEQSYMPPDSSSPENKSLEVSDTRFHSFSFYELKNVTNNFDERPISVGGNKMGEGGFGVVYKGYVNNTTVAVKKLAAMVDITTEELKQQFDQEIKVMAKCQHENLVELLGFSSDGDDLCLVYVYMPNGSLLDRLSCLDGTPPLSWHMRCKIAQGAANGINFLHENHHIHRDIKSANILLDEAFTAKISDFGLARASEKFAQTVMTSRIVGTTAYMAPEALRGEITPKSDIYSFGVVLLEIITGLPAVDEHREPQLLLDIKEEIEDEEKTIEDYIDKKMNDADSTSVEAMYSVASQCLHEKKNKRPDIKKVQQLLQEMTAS
Kind of test: IRAK4 degradation assay using the HiBiT Method. It counts as cell-based. The conditions noted are these: 293T cells expressing HiBiT-tagged IRAK4; 6-hour incubation; Nano-Glo HiBiT Lytic Assay luminescence. The gist of the method: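 HEK293T cells with HiBiT knocked into the IRAK4 C-terminus, 10,000 cells per well, treated with an 11-point half-log series […] in duplicate for 6 hours at 37° C., 5% CO2. Remaining IRAK4 quantified by Nano-Glo HiBiT lytic luminescence against DMSO controls.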
(The HiBiT peptide binds its large partner to form an active luciferase.)

As to `CC(C)Oc1cc2nc(C3CCN(CCc4ccc(NC5CCC(=O)NC5=O)cc4)CC3)cn2cc1NC(=O)c1cccc(C(F)(F)F)n1` (stereo not shown) [Example 68, N-[2-[1-[2-[4-[(2,6-dioxo-3-piperidyl)amino]phenyl]ethyl]-4-piperidyl]-7-isopropoxy-imidazo[1,2-a]pyridin-6-yl]-6-(trifluoromethyl)pyridine-2-carboxamide], the DC50 was 10 to 100 nM.

For `CC(C)Oc1cc2nc(C3CCN(CCCCc4ccc(NC5CCC(=O)NC5=O)cc4)CC3)cn2cc1NC(=O)c1cccc(C(F)(F)F)n1` (stereo not shown) [Example 69, N-[2-[1-[4-[4-[(2,6-dioxo-3-piperidyl)amino]phenyl]butyl]-4-piperidyl]-7-isopropoxy-imidazo[1,2-a]pyridin-6-yl]-6-(trifluoromethyl)pyridine-2-carboxamide], the DC50 is 100 to 500 nM.

With `CC(C)Oc1cc2nc(C3CCN(CCCCCCc4ccc(NC5CCC(=O)NC5=O)cc4)CC3)cn2cc1NC(=O)c1cccc(C(F)(F)F)n1` (stereo not shown) [Example 70, N-[2-[1-[6-[4-[(2,6-dioxo-3-piperidyl)amino]phenyl]hexyl]-4-piperidyl]-7-isopropoxy-imidazo[1,2-a]pyridin-6-yl]-6-(trifluoromethyl)pyridine-2-carboxamide], the DC50 lay in the range of 100 to 500 nM.

Turning to `CC(C)Oc1cc2nc(CCCNC(=O)CN3CCC(c4ccc(NC5CCC(=O)NC5=O)cc4)CC3)cn2cc1NC(=O)c1cccc(C(F)(F)F)n1` (stereo not shown) [Example 71, N-[2-[3-[[2-[4-[4-[(2,6-dioxo-3-piperidyl)amino]phenyl]-1-piperidyl]acetyl]amino]propyl]-7-isopropoxy-imidazo[1,2-a]pyridin-6-yl]-6-(trifluoromethyl)pyridine-2-carboxamide], the DC50 fell in the range of 100 to 500 nM.

In turn, `CC(C)Oc1cc2nc(CCCCCCN3CCC(c4ccc(NC5CCC(=O)NC5=O)cc4)CC3)cn2cc1NC(=O)c1cccc(C(F)(F)F)n1` (stereo not shown) [Example 72, N-[2-[6-[4-[4-[(2,6-dioxo-3-piperidyl)amino]phenyl]-1-piperidyl]hexyl]-7-isopropoxy-imidazo[1,2-a]pyridin-6-yl]-6-(trifluoromethyl)pyridine-2-carboxamide] displayed a DC50 of 100 to 500 nM.

In the case of `CC(C)Oc1cc2nc([C@H](Cc3ccccc3)NC(=O)CN3CCC(c4ccc(C5CCC(=O)NC5=O)cc4)CC3)cn2cc1NC(=O)c1cccc(C(F)(F)F)n1` (stereo partly drawn) [Example 73, N-[2-[(1S)-1-[[2-[4-[4-(2,6-dioxo-3-piperidyl)phenyl]-1-piperidyl]acetyl]amino]-2-phenyl-ethyl]-7-isopropoxy-imidazo[1,2-a]pyridin-6-yl]-6-(trifluoromethyl)pyridine-2-carboxamide], the DC50 was 100 to 500 nM.

On to `CC(C)Oc1cc2nc(CC3CN(C(=O)CN4CCC(c5ccc(C6CCC(=O)NC6=O)cc5)CC4)C3)cn2cc1NC(=O)c1cccc(C(F)(F)F)n1` (stereo not shown) [Example 74, N-[2-[[1-[2-[4-[4-(2,6-dioxo-3-piperidyl)phenyl]-1-piperidyl]acetyl]azetidin-3-yl]methyl]-7-isopropoxy-imidazo[1,2-a]pyridin-6-yl]-6-(trifluoromethyl)pyridine-2-carboxamide], for which the DC50 lay within 100 to 500 nM.

The compound `CC(C)Oc1cc2nc(C3CCN(C(=O)CN4CCC(c5ccc(C6CCC(=O)NC6=O)cc5)CC4)C3)cn2cc1NC(=O)c1cccc(C(F)(F)F)n1` (stereo not shown) [Example 75, N-[2-[1-[2-[4-[4-(2,6-dioxo-3-piperidyl)phenyl]-1-piperidyl]acetyl]pyrrolidin-3-yl]-7-isopropoxy-imidazo[1,2-a]pyridin-6-yl]-6-(trifluoromethyl)pyridine-2-carboxamide] registered a DC50 of 10 to 100 nM.

In turn, `CC(C)Oc1cc2nc(C3CCCN(C(=O)CN4CCC(c5ccc(C6CCC(=O)NC6=O)cc5)CC4)C3)cn2cc1NC(=O)c1cccc(C(F)(F)F)n1` (stereo not shown) [Example 76, N-[2-[1-[2-[4-[4-(2,6-dioxo-3-piperidyl)phenyl]-1-piperidyl]acetyl]-3-piperidyl]-7-isopropoxy-imidazo[1,2-a]pyridin-6-yl]-6-(trifluoromethyl)pyridine-2-carboxamide] showed a DC50 of 100 to 500 nM.

With `CC(C)Oc1cc2nc(C3CN(C(=O)CN4CCC(c5ccc(C6CCC(=O)NC6=O)cc5)CC4)C3)cn2cc1NC(=O)c1cccc(C(F)(F)F)n1` (stereo not shown) [Example 77, N-[2-[1-[2-[4-[4-(2,6-dioxo-3-piperidyl)phenyl]-1-piperidyl]acetyl]azetidin-3-yl]-7-isopropoxy-imidazo[1,2-a]pyridin-6-yl]-6-(trifluoromethyl)pyridine-2-carboxamide], the DC50 fell in the range of 100 to 500 nM.

Turning to `CC(C)Oc1cc2nc([C@@H](Cc3ccccc3)NC(=O)CN3CCC(c4ccc(C5CCC(=O)NC5=O)cc4)CC3)cn2cc1NC(=O)c1cccc(C(F)(F)F)n1` (stereo partly drawn) [Example 78, N-[2-[(1R)-1-[[2-[4-[4-(2,6-dioxo-3-piperidyl)phenyl]-1-piperidyl]acetyl]amino]-2-phenyl-ethyl]-7-isopropoxy-imidazo[1,2-a]pyridin-6-yl]-6-(trifluoromethyl)pyridine-2-carboxamide], the DC50 lay within 500 to 1000 nM.

The compound `CC(C)Oc1cc2nc(CC3CCN(C(=O)CN4CCC(c5ccc(C6CCC(=O)NC6=O)cc5)CC4)CC3)cn2cc1NC(=O)c1cccc(C(F)(F)F)n1` (stereo not shown) [Example 79, N-[2-[[1-[2-[4-[4-(2,6-dioxo-3-piperidyl)phenyl]-1-piperidyl]acetyl]-4-piperidyl]methyl]-7-isopropoxy-imidazo[1,2-a]pyridin-6-yl]-6-(trifluoromethyl)pyridine-2-carboxamide] had a DC50 of 10 to 100 nM.

`CC(C)Oc1cc2nc(C3CCN(C(=O)C4CC5(CCCN5C(=O)c5ccc(OC6CCC(=O)NC6=O)cc5)C4)CC3)cn2cc1NC(=O)c1cccc(C(F)(F)F)n1` (stereo not shown) [Example 80, N-[2-[1-[5-[4-[(2,6-dioxo-3-piperidyl)oxy]benzoyl]-5-azaspiro[3.4]octane-2-carbonyl]-4-piperidyl]-7-isopropoxy-imidazo[1,2-a]pyridin-6-yl]-6-(trifluoromethyl)pyridine-2-carboxamide] yielded a DC50 of 100 to 500 nM.

`CC(C)Oc1cc2nc(C3CCN(C(=O)CCC4CCN(C(=O)c5ccc(OC6CCC(=O)NC6=O)cc5)CC4)CC3)cn2cc1NC(=O)c1cccc(C(F)(F)F)n1` (stereo not shown) [Example 81, N-[2-[1-[3-[1-[4-[(2,6-dioxo-3-piperidyl)oxy]benzoyl]-4-piperidyl]propanoyl]-4-piperidyl]-7-isopropoxy-imidazo[1,2-a]pyridin-6-yl]-6-(trifluoromethyl)pyridine-2-carboxamide]: the DC50 was in the range of 100 to 500 nM.

In the case of `CC(C)Oc1cc2nc(C3CCN(C(=O)c4ccccc4CNC(=O)c4ccc(OC5CCC(=O)NC5=O)cc4)CC3)cn2cc1NC(=O)c1cccc(C(F)(F)F)n1` (stereo not shown) [Example 82, N-[2-[1-[2-[[[4-[(2,6-dioxo-3-piperidyl)oxy]benzoyl]amino]methyl]benzoyl]-4-piperidyl]-7-isopropoxy-imidazo[1,2-a]pyridin-6-yl]-6-(trifluoromethyl)pyridine-2-carboxamide], the DC50 lay within 100 to 500 nM.

In the case of `CC(C)Oc1cc2nc(C3CCN(C(=O)C4CCCC5(CCN(C(=O)c6ccc(OC7CCC(=O)NC7=O)cc6)CC5)O4)CC3)cn2cc1NC(=O)c1cccc(C(F)(F)F)n1` (stereo not shown) [Example 83, N-[2-[1-[9-[4-[(2,6-dioxo-3-piperidyl)oxy]benzoyl]-1-oxa-9-azaspiro[5.5]undecane-2-carbonyl]-4-piperidyl]-7-isopropoxy-imidazo[1,2-a]pyridin-6-yl]-6-(trifluoromethyl) pyridine-2-carboxamide], the DC50 fell in the range of 100 to 500 nM.

Consider `CC(C)Oc1cc2nc(C3CCN(C(=O)C4CCN(C(=O)c5ccc(OC6CCC(=O)NC6=O)cc5)CC4)CC3)cn2cc1NC(=O)c1cccc(C(F)(F)F)n1` (stereo not shown) [Example 84, N-[2-[1-[1-[4-[(2,6-dioxo-3-piperidyl)oxy]benzoyl]piperidine-4-carbonyl]-4-piperidyl]-7-isopropoxy-imidazo[1,2-a]pyridin-6-yl]-6-(trifluoromethyl)pyridine-2-carboxamide], for which the DC50 lay in the range of 500 to 1000 nM.

The compound `Cc1cc(N2CCN(C(=O)CN3CCC(c4cn5cc(NC(=O)c6cccc(C(F)(F)F)n6)c(OC(C)C)cc5n4)CC3)CC2)ccc1NC1CCC(=O)NC1=O` (stereo not shown) [Example 85, N-[2-[1-[2-[4-[4-[(2,6-dioxo-3-piperidyl)amino]-3-methyl-phenyl]piperazin-1-yl]-2-oxo-ethyl]-4-piperidyl]-7-isopropoxy-imidazo[1,2-a]pyridin-6-yl]-6-(trifluoromethyl) pyridine-2-carboxamide] came in with a 50% degradation concentration (DC50) of 100 to 500 nM.

On to `CC(C)Oc1cc2nc(C3CCN(CC(=O)N4CCC(Oc5ccc(NC6CCC(=O)NC6=O)cc5)CC4)CC3)cn2cc1NC(=O)c1cccc(C(F)(F)F)n1` (stereo not shown) [Example 86, N-[2-[1-[2-[4-[4-[(2,6-dioxo-3-piperidyl)amino]phenoxy]-1-piperidyl]-2-oxo-ethyl]-4-piperidyl]-7-isopropoxy-imidazo[1,2-a]pyridin-6-yl]-6-(trifluoromethyl)pyridine-2-carboxamide], for which the DC50 lay within 100 to 500 nM.

Usually DC50 stands for the concentration at which degradation of the target reaches its halfway point.
